Test: Tablet dissolution in 0.01M HCl+1% sodium laurylsulfate, 50 rpm
Format: physicochemical
Description: The tablets were measured on dissolution in a medium of 0.01M HCl+1% sodium laurylsulfate (SLS), 50 rpm. The results reported in the following tables are the percentages of release drug substance. Exp 1, exp 2, etc. refer to a first, a second, etc. experiment under the same conditions.
Two coating trials were performed using the tablet core samples with a compression force of 1030 daN and 1266 daN. The coating material was polyvinyl alcohol (PVA). The film coated tablets were measured on dissolution in medium 0.01 M HCl+1% SLS, 50 rpm.

release out of the coated tablets compared to the cores (PVA film coated tablets) | influence of the compression force on dissolution (TMC125 compared with TMC114) | SMILES | impact of the coating on the release (PVA film coated tablets)
 |  | CC(C)CN(C[C@@H](O)[C@H](Cc1ccccc1)NC(=O)O[C@H]1CO[C@H]2OCC[C@H]21)S(=O)(=O)c1ccc(N)cc1 [TMC114, (1S,2R,3R,3aS,6aR)-{3-[(4-aminobenzenesulfonyl)isobutyl-amino]-1-benzyl-2-hydroxypropyl}carbamic acid hexahydrofuro[2,3-b]furan-3-yl ester monoethanolate] | only a minor impact
somewhat faster | more influenced | Cc1cc(C#N)cc(C)c1Oc1nc(Nc2ccc(C#N)cc2)nc(N)c1Br [TMC125, 4-[[6-amino-5-bromo-2-[(4-cyanophenyl)amino]-4-pyrimidinyl]oxy]-3,5-dimethylbenzonitrile] | 
